From patent US10221139B2, “Inhibitors of histone demethylases” (Gilead Sciences, Inc., priority 2012, dated 2019) come the findings set out here.

Assay type in all cases: biochemical
The target in assay [1] is T1, FBXL10 (KDM2B) (Homo sapiens, UniProt Q8NHM5).
T1 construct: 1-650; purchased BPS, Bioscience, US; host or cells: Bac (baculovirus)
T1 sequence (Q8NHM5 1-650): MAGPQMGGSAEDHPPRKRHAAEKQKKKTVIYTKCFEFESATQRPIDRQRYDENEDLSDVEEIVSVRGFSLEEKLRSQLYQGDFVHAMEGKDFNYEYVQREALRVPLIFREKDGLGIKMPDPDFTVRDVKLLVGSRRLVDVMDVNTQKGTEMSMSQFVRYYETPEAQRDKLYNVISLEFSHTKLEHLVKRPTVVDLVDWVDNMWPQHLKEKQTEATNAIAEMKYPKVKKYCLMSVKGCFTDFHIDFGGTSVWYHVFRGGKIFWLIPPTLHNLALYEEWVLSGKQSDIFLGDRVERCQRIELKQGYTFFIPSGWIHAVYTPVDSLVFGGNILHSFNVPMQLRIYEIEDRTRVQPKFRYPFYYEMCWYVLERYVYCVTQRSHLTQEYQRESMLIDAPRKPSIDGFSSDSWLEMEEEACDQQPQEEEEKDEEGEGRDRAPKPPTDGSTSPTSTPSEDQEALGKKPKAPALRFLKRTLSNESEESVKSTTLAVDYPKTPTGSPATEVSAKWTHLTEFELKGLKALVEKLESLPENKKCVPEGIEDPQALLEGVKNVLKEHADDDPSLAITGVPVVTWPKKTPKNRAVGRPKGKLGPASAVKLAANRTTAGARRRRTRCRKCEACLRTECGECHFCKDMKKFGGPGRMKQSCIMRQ
Nature of the assay: Histone lysine demethylase AlphaLISA assay, FBXL10. To be noted: substrate BH3K36M2. In short, it runs like this: (§1)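 Each enzyme was preincubated 10 min, then 10 min with compound (added in 3% DMSO solution in enzyme buffer) before substrate addition and reaction at room temperature. Demethylation was detected by AlphaLISA: acceptor beads 60 min in the dark, then streptavidin donor beads, incubated and read; IC50 values determined.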
On the technique in general: In Alpha technology, singlet oxygen from a donor bead excites a nearby acceptor bead.

The target in assay [2] is T2, JMJD1B (KDM3B) (Homo sapiens, UniProt Q7LBC6).
T2 construct: 842-1761; host or cells: Bac (baculovirus)
T2 sequence (Q7LBC6 842-1761): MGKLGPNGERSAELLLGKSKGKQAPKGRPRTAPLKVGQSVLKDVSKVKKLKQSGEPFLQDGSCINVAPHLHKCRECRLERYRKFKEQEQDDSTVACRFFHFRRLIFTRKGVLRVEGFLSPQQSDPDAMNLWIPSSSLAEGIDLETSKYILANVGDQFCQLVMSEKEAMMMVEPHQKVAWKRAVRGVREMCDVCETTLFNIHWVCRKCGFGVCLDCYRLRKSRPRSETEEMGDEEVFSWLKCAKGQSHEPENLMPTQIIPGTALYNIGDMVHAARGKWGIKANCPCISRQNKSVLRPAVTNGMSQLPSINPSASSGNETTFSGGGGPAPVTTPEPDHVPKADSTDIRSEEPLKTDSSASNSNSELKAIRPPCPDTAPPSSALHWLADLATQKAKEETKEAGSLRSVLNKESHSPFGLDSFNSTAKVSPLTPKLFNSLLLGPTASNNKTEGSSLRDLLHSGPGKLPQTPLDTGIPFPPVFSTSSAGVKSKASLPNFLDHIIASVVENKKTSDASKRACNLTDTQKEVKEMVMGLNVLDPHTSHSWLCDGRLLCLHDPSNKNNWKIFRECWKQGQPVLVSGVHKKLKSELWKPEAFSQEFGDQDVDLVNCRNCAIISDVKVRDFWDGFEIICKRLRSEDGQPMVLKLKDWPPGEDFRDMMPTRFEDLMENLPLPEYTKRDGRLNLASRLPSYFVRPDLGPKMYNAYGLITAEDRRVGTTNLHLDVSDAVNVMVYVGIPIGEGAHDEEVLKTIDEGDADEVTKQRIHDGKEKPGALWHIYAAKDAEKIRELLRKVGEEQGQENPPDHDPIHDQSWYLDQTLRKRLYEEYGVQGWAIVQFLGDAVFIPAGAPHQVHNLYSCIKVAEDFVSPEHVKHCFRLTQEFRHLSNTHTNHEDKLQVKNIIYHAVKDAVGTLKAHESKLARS
Nature of the assay: Histone lysine demethylase AlphaLISA assay, JMJD1B. To be noted: substrate BK9M2. The protocol:
(§2) Example 2: Histone Lysine Demethylase AlphaLISA Assays for IC50 Value Determination
(§3) Assays are performed analogously to the protocol described by Perkin Elmer (Roy et al. Perkin Elmer Technical Note: AlphaLISA #12, April 2011).
(§4) Enzymes are dissolved in enzyme buffer and incubated for 10 min before 5 μL is added to 5 μL 3% DMSO solutions of compounds in enzyme buffer. Incubated for another 10 minutes, before 5 μL substrate solution is added and the reaction mixture is incubated at room temperature for the given period. 10 μL acceptor beads, suspended at given dilutions in Epigenetic Buffer (Perkin Elmer AL008) from stock, are added and the suspension is incubated 60 minutes in the dark at room temperature, before 10 μL suspension (at the given dilutions in Epigenetic Buffer) of streptavidin donor beads (Perkin Elmer 6760002) in Epigenetic Buffer is added. After incubation at room temperature in the dark the plates are read. Reaction conditions are seen in Table 2b.

Assay [3] deals with T3, JMJD2B (KDM4B) (Homo sapiens, UniProt O94953).
T3 construct: 2-500; purchased BPS; host or cells: Bac (baculovirus)
T3 sequence (O94953 2-500): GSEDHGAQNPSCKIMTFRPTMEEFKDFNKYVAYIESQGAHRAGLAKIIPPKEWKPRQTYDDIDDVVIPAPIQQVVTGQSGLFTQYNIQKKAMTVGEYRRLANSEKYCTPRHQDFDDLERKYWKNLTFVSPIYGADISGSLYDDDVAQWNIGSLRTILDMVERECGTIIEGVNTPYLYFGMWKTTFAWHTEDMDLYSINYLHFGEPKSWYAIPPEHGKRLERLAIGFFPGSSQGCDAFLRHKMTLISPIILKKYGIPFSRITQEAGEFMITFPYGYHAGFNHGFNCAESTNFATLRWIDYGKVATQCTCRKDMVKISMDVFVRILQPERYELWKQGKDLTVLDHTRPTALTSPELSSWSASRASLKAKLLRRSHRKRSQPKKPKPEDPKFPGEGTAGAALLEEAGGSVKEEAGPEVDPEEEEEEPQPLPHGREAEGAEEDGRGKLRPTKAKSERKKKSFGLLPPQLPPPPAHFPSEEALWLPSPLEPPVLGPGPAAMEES
Nature of the assay: Histone lysine demethylase AlphaLISA assay, JMJD2B. To be noted: substrate BK9M3, read-out: JMUD2B IC50. The procedure:
as §2, §3, §4

The target of assay [4] is T4, UTX (KDM6A) (Homo sapiens, UniProt O15550).
T4 construct: 919-1401; host or cells: E. coli
Nature of the assay: Histone lysine demethylase AlphaLISA assay, UTX. To be noted: substrate BK27M3. In short, it runs like this: as §1

T4 sequence (O15550 919-1401): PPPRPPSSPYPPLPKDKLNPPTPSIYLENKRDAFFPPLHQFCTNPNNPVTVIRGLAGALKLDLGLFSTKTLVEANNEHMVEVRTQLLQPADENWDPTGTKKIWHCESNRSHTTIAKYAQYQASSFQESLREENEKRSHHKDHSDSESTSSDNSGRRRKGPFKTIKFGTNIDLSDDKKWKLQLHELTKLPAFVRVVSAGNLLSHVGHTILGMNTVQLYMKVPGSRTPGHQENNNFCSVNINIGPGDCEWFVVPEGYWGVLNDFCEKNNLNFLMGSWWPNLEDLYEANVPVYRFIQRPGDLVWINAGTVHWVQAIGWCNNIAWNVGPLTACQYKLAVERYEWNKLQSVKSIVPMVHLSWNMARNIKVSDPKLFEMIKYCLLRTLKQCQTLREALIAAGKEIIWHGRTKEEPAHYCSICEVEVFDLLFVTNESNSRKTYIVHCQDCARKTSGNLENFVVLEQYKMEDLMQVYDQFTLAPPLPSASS

As a reminder, the IC50 is the concentration at which inhibition is half-maximal. Consider “2-({[(1R)-2-hydroxy-1-{methyl[3-(1-methyl-1H-imidazol-2-yl)propyl]carbamoyl}ethyl]amino}methyl)pyridine-4-carboxylic acid [#37]”, for which the IC50 in assay [1] is not below 1000 nM; in assay [2], not below 1000 nM; in assay [3], less than 100 nM; in assay [4] it was not below 1000 nM.
For the molecule `O=C(O)c1ccnc(CNCC(=O)N2CCCC2)c1` [#13, 2-({[2-oxo-2-(pyrrolidin-1-yl)ethyl]amino}methyl)pyridine-4-carboxylic acid], the IC50 in assay [1] was less than 100 nM; in assay [2] it was not below 1000 nM; in assay [3] it was less than 100 nM; in assay [4] it was not below 1000 nM.
For `CCCCN(C)C(=O)CNCc1cc(C(=O)O)ccn1` [#14, 2-[({[butyl(methyl)carbamoyl]methyl}amino)methyl]pyridine-4-carboxylic acid], the half-inhibitory concentration (IC50) in assay [1] was less than 100 nM; in assay [2], not below 1000 nM; in assay [3] it was less than 100 nM; in assay [4] it was not below 1000 nM.
As to `COc1ccccc1CN1CCC(NC(=O)CNCc2cc(C(=O)O)ccn2)CC1` [#29, 2-({[({1-[(2-methoxyphenyl)methyl]piperidin-4-yl}carbamoyl)methyl]amino}methyl)pyridine-4-carboxylic acid], the IC50 was less than 100 nM in assay [1], 100 to 1000 nM in assay [2] and less than 100 nM in assay [3].
On to `CCCCN1CCCC1CCNCc1cc(C(=O)O)ccn1` (centres unmarked) [#34, 2-({[2-(1-butylpyrrolidin-2-yl)ethyl]amino}methyl)pyridine-4-carboxylic acid], for which the results for the IC50 in assay [2], in assay [3] and in assay [4] were not below 1000 nM, less than 100 nM and not below 1000 nM, respectively.
As to `CC(C)=CCCC(C)CCN1CCC(NC(=O)CNCc2cc(C(=O)O)ccn2)C1` (centres unmarked) [#35, 2-{[({[1-(3,7-dimethyloct-6-en-1-yl)pyrrolidin-3-yl]carbamoyl}methyl)amino]methyl}pyridine-4-carboxylic acid], the IC50 was 100 to 1000 nM in assay [1], not below 1000 nM in assay [2], less than 100 nM in assay [3] and not below 1000 nM in assay [4].
For the molecule `CCN(CCN(C)C)C(=O)CNCc1cc(C(=O)O)ccn1` [#49, 2-{[({[2-(dimethylamino)ethyl](ethyl)carbamoyl}methyl)amino]methyl}pyridine-4-carboxylic acid], the IC50 is 100 to 1000 nM in assay [1], not below 1000 nM in assay [2], less than 100 nM in assay [3] and not below 1000 nM in assay [4].
